We go through one compound from patent US6479516B1, “4-arylpiperidine derivatives for the treatment of pruritus” (Pfizer Inc, priority 1999, dated 2002).

The test system of this assay is Male Wistar rats. The experiment in a line: Inhibition of hind leg scratching behaviour induced in rats by a pruritogenic agent (5-methoxytryptamine hydrochloride). The class given is in vivo, rat. Particulars: test compound by subcutaneous injection in aqueous micelle formulation; pruritogen 5-methoxytryptamine hydrochloride 4 mg/3 mL/kg s.c.; hindleg scratching score totalled after 25 minutes vs control group. How it is done:
The compounds of the invention are evaluated for their activity as antipruritic agents by measuring their ability to inhibit the hind leg scratching behaviour induced in rats by the administration of a known pruritogenic agent. These studies are based on the procedure described by Berendsen and Broekkamp in the European Journal of Pharmacology, 1991, 194, 201. The test is performed as follows:
Male Wistar rats (approximately 150 g body weight) are challenged with a pruritogen by subcutaneous injection of 5-methoxytryptamine hydrochloride (4 mg/3 mL/kg) dissolved in physiological saline into the scruff of the neck. At this dose a constant and quantifiable hindleg scratching response lasting up to 90 minutes is obtained.
The test compound is administered to the test animals by subcutaneous injection in an aqueous micelle formulation. The test compound is prepared in the following manner. The compound is dissolved in a vehicle (composition v/v %: glycerol formal, 24; tween 80, 17; benzyl alcohol, 1.5 and purified water to 100) then seven parts purified water is added to three parts of the above vehicle to give the aqueous micelle formulation. […]
After the pruritogen challenge has been administered, hindleg scratching is scored for each animal by recording the presence or absence of scratching during each 30 second interval as 1 or 0 scored respectively. […]

For `CCCCCCN1CC[C@@](C)(c2ccc(NC(C)=O)c(O)c2)[C@H](C)C1` (racemic) [Example 8, (±)-N-Hexyl-trans-3,4-dimethyl-4-(4-acetylamino-3-hydroxyphenyl)piperidine], the anti-pruritic activity entry is recorded as “display anti-pruritic activity”.
